# Assay results published in article PMC12040169 (PLOS Biology, 2025).
# Assay: in vitro
# Conditions: human, hela cells, % viability
row,SMILES,"viability at 28.5 h, 10 µM"
1,CCn1c(SCC(=O)N2CCC(C(N)=O)(N3CCCCC3)CC2)nnc1-c1ccccc1 [CBK266135],95.2%
2,O=C(O)CNS(=O)(=O)c1cc(Cl)c(Cl)cc1Cl [CBK266136],96.6%
3,O=C(COc1ccc2oc3c(c2c1)CCCC3)Nc1cccc2cccnc12 [CBK266137],101%
4,CN(C)CCNc1ccc(-c2nnc(O)c3ccccc23)cc1[N+](=O)[O-] [CBK266143],111%
5,CCCc1cc(O)nc(SCC(=O)Nc2cc3c(cc2C(C)=O)OCO3)n1 [CBK266144],92%
6,Cn1c(CNC(=O)c2ccc(Cl)cc2)nnc1SCC(=O)c1ccc(Br)cc1 [CBK266145],88.4%
7,CCNS(=O)(=O)c1ccc(NC(=O)c2nc3nc(C)cc(C(F)F)n3n2)cc1 [CBK266146],104%
8,O=C(C1=C(O)C(=O)N(CCCN2CCOCC2)C1c1cccnc1)c1cc2ccccc2o1 (stereo not drawn) [CBK266147],104%
9,COc1ccc(-c2cc(C(F)(F)F)nc(SCC(=O)Nc3cccnc3)n2)cc1OC [CBK266148],103%
10,Cc1ccc(C)n1NC(=O)c1ccccc1[N+](=O)[O-] [CBK266151],104%
11,O=C(CSc1nnc(-c2cccnc2)n1-c1ccc(Br)cc1)Nc1ccc2c(c1)OCO2 [CBK266153],93.8%
12,O=C(Nc1ccc(I)cc1C(=O)Nc1cccnc1)c1ccccc1Cl [CBK266154],98.5%
13,O=C(Nc1ccc(S(=O)(=O)N2CCCCCC2)cc1)c1nc2ncccn2n1 [CBK266155],97.7%
14,O=C(Nc1scc(-c2ccc(-c3ccccc3)cc2)c1C(=O)O)c1ccco1 [CBK266156],108%
15,O=C(Nc1ccc(I)cc1C(=O)NCCN1CCOCC1)c1ccc(Cl)cc1Cl [CBK266157],100%
16,COc1ccc(S(=O)(=O)N(C)CC(=O)Nc2ccccc2C(F)(F)F)cc1OC [CBK266159],106%
17,Cc1nn(Cc2ccc(Cl)cc2)c(C)c1NC(=O)CSc1nc(-c2ccc(F)cc2)cc(C(F)(F)F)n1 [CBK266160],89.7%

row,SMILES,"viability at 28.5 h, 10 µM"
1,NS(=O)(=O)c1ccc(NC(=O)CN2CCC(Cc3ccccc3)CC2)cc1 [CBK266161],98.6%
2,O=C(COc1ccc(Cl)cc1Cl)Nc1ccc(CN2CCCCC2)cc1 [CBK266164],105%
3,N#C/C(=C\c1cccn1-c1ccc(S(N)(=O)=O)cc1)c1nc2ccccc2[nH]1 [CBK266167],103%
4,O=C(C1=C(O)C(=O)N(CCCn2ccnc2)C1c1cccs1)c1ccc2c(c1)OCCO2 (stereo not drawn) [CBK266170],92%
5,O=C(COc1ccccc1)Nc1ccccc1Sc1ncnc2sc3c(c12)CCCC3 [CBK266171],98.4%
6,Cc1cccc(-n2c(N)cc(=O)nc2SC(C)C(=O)Nc2ccc(S(N)(=O)=O)cc2)c1 (stereo not drawn) [CBK266173],99.7%
7,O=C(CSc1nnc(-c2cccnc2)n1-c1ccc(Br)cc1)Nc1ccc(F)cc1 [CBK266174],111%
8,Nc1nc(SCCCC(=O)NC2CCCCC2)nc2sc3c(c12)CCCC3 [CBK266176],99.7%
9,Cc1oc2nc(SCC(=O)NCc3cccnc3)nc(N)c2c1C [CBK266178],106%
10,Cc1cccc(NC(=O)CSc2nc(O)c3c(C)cc(C)nc3n2)c1 [CBK266179],90.5%
11,NS(=O)(=O)c1ccc(NC(=O)CN2CCN(c3cccc(C(F)(F)F)c3)CC2)cc1 [CBK266180],105%
12,O=C(c1cccs1)N1CCN(S(=O)(=O)c2cccc([N+](=O)[O-])c2)CC1 [CBK266184],94.7%
13,COc1ccc(NC(=O)CSc2nnc(-c3ccncc3)n2-c2ccc(C)cc2)cc1Cl [CBK266187],98.3%
14,Cn1c(=O)c2[nH]c(NCCN3CCOCC3)nc2n(C)c1=O [CBK266189],98.6%
15,COc1cc(C=O)ccc1OCC(=O)Nc1ccc(C)c(Cl)c1 [CBK266190],111%
16,COc1ccc(-c2cc(C(F)(F)F)nc(SCC(=O)N3CCN(C)CC3)n2)cc1OC [CBK266194],96.1%
